From patent US11179348B2, “Combination comprising pterostilbene for the treatment of cancer” (FUNDACIÓN UNIVERSIDAD CATÓLICA DE VALENCIA SAN VICENTE …, priority 2015, dated 2021)

Tested on: MDA-MB-231 cells
Assay: GSH levels and glutathione- and oxidative stress-related enzyme activities in MDA-MB-231 cells growing in vivo
Set-up: species or system human
Conditions: MDA-MB-231, in vivo Pter, day 35
Experimental: To measure enzyme activity, isolated tumor cells were homogenized in 0.1 M phosphate buffer (pH 7.2) at 4° C. GCL and GSS activities were measured as described previously (Obrador, E. et al. Hepatology 35, 74-81 (2002)). GPX (selenium dependent) activity was measured as described by Flohé and Gunzler (Flohe, L. & Gunzler, W. A. Methods Enzymol 105, 114-121 (1984)) using H2O2 as a substrate. GSR activity was determined as described by Akerboom and Sies (Akerboom, T. P. et al, Bull Eur Physiopathol Respir 17 Suppl, 221-227 (1981)). GGT activity was measured as described previously (Obrador, E. et al. Hepatology 35, 74-81 (2002)). GST activity was measured using an assay kit from Sigma. TXNRD activity, defined by the concentration of sodium-lipoate (disulfide) reduced to dehydrolipoate (dithiol) per milligram protein, was measured as previously described (Javvadi, P. et al. Cancer Res 70, 1941-1950 (2010)). SOD activity was measured as described by Flohé and Otting (Flohe, L. & Otting, F. Methods Enzymol 105, 93-104 (1984).) using 2 mM cyanide in the assay medium to distinguish mangano-type enzyme (SOD2) from the cuprozinc type (SOD1). CAT activity was analyzed as described by Aebi (Aebi, H. Methods Enzymol 105, 121-126 (1984)). NOX activity was measured by chemiluminescence following the methodology of Wind et al. (Wind, S. et al. Comparative pharmacology of chemically distinct NADPH oxidase inhibitors. Br J Pharmacol 161, 885-898 (2010)). Protein concentration was determined with the Pierce BCA protein assay (Fisher Scientific, Waltham, Mass.).
GSH, GSSG, NADP^+ and NADPH Determination.
GSH and GSSG were determined, following procedures previously described (Obrador, E. et al. PLoS One 9, e96466 (2014)), by LC/MS using the same equipment described above for pterostilbene determination. Cell processing was performed according to published methodology, where rapid N-ethylmaleimide derivatization was used to prevent GSH auto-oxidation (Asensi, M. et al. Anal Biochem 217, 323-328 (1994)). NADP^+ and NADPH were quantitated using an assay kit from Sigma (St. Louis, Mo.).
Isolation of Tumor Cells from Mouse Xenografts Using Enzymatic Digestion and a double Ficoll gradient.
To maximize the amount of isolated cells, avoiding the use of RFP-transfected cells and subsequent laser microdissection, an alternative methodology was set up. To maximize cell yield and viability the following combination of enzymes was used: collagenase III (200 U/ml; Sigma-Aldrich), DNase I (200 U/ml; Sigma-Aldrich) and trypsin (5 mg/ml; Invitrogen), and a non-enzymatic dissociation buffer (NEDB, Invitrogen). Briefly, mice were killed, and tumors were removed (avoiding skin, muscle and fat) into cold culture media and processed immediately. The tumors were minced into 1-3 mm fragments, which were then incubated with the dissociation solution (see above) for 30 min at 37° C. The tumor fragments were mixed up and down every 10 min using a […] micropipette with a tip cut to a diameter adapted to tissue fragment size. After each incubation period, the fragments were filtered through a […] nylon mesh cell strainer (BD Biosciences, San Diego, Calif., USA). The released cells were centrifuged at 1200 r.p.m. for 2 min and stored in cold CO2-independent medium with 30% FCS at […]. Fresh dissociation solution was added to the remaining tissue fragments for 30 min. Dissociation was stopped when no additional cells were released. The fragments were pushed through a sieve and all cells from all incubation periods were pooled and counted.
The dissociated cells were layered onto a double Ficoll gradient (Histopaque; Sigma-Aldrich; densities 1.077 and 1.119) and spun at 700 g for 30 min at room temperature. Cells removed from both interfaces were pooled and washed two times in CO2-independent medium and stored at 4° C. Debris and red blood cell elimination was improved with the dual-density gradient. […]

With `COc1cc(/C=C/c2ccc(O)cc2)cc(OC)c1` [Pter, trans-3,5-dimethoxy-4′-hydroxystilbene] the CAT was 0.6 ± 0.2 mU/10^6 cells, the GCL was 66 ± 18 mU/10^6 cells and the GSH was 11.5 ± 2.0 nmol/10^6 cells. It also gave a GSS of 7.7 ± 1.2 mU/10^6 cells, a GSSG of 0.2 ± 0.05 nmol/10^6 cells and an SOD1 of 0.3 ± 0.08 U/10^6 cells. The SOD2 was 0.03 ± 0.01 U/10^6 cells.
